Assay results published in ChEMBL document CHEMBL1201862, “PubChem BioAssay data set” (2004).
Active and inactive are the calls of the source. Rule as the data show it, for most assays here: actives have a measured EC50 and inactives only a lower limit.

Assays:
[1] = biological target: Protein-tyrosine kinase 2-beta (Homo sapiens, UniProt Q14289);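 also: potency of inhibitors of PYK2 kinase phosphorylation of poly-GT substrate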
[2] = tested on: H4; assay: Luminescence Cell-Based Dose Response HTS to Identify Activators of 5'UTR Stem-Loop Driven Prion Protein mRNA Translation in H4 Neuroglioblastoma Cells. [Related pubchem assays: 1829 (Project Summary), 1814 (Primary HTS)]; type: functional; settings: Homo sapiens
[3] = Luminescence Cell-Based Dose Response to Identify Activators of Luciferase Translation or Activity in H4-C Neuroglioblastoma Cells. [Related pubchem assays: 1829 (Project Summary), 1814 (Primary HTS)]; type: functional
[4] = Luminescence Cell-Based Dose Confirmation to Identify Activators of 5'UTR Stem-Loop Driven Alpha-Synuclein mRNA Translation in H4 Neuroglioblastoma Cells. [Related pubchem assays: 1829 (Project Summary), 1814 (Primary HTS)]; type: functional
[5] = Luminescence Cell-Based Dose Response HTS to Identify Activators of Luciferase Translation or Activity in H4 […] Cells. [Related pubchem assays: 1829 (Project Summary), 1814 (Primary HTS)]; type: functional
[6] = Luminescence Cell-Based Dose Confirmation HTS to Identify Activators of 5'UTR Stem-Loop Driven Alpha-Synuclein mRNA Translation in H4 Neuroglioblastoma Cells. [Related pubchem assays: 1829 (Project Summary), 1814 (Primary HTS)]; type: functional
[7] = Luminescence Cell-Based Dose Response to Identify Activators of 5'UTR Stem-Loop Driven Prion Protein mRNA Translation in H4-C Neuroglioblastoma Cells. [Related pubchem assays: 1829 (Project Summary), 1814 (Primary HTS)]; type: functional
[8] = biological target: T1, RNA-binding protein pos-1 (Caenorhabditis elegans, UniProt G5EF15); assay: inhibitors of POS-1/mex-3 RNA binding, dose response, biochemical, fluorescence polarization (AID 1964);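 also: purified POS-1 fused to maltose binding protein made in E. coli; potency of compounds blocking POS-1 binding to fluorescent RNA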
T1 sequence (G5EF15 whole entry): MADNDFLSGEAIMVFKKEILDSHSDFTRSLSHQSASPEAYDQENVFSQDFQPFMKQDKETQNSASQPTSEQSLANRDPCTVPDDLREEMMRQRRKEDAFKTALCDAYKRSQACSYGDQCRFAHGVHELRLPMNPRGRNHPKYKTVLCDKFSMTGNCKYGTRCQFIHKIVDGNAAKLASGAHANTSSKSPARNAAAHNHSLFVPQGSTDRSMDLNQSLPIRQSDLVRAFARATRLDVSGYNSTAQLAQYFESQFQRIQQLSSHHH

[9] = biological target: T2, Histone-lysine N-methyltransferase NSD2 (Homo sapiens, UniProt O96028); type: biochemical
T2 sequence (O96028 whole entry): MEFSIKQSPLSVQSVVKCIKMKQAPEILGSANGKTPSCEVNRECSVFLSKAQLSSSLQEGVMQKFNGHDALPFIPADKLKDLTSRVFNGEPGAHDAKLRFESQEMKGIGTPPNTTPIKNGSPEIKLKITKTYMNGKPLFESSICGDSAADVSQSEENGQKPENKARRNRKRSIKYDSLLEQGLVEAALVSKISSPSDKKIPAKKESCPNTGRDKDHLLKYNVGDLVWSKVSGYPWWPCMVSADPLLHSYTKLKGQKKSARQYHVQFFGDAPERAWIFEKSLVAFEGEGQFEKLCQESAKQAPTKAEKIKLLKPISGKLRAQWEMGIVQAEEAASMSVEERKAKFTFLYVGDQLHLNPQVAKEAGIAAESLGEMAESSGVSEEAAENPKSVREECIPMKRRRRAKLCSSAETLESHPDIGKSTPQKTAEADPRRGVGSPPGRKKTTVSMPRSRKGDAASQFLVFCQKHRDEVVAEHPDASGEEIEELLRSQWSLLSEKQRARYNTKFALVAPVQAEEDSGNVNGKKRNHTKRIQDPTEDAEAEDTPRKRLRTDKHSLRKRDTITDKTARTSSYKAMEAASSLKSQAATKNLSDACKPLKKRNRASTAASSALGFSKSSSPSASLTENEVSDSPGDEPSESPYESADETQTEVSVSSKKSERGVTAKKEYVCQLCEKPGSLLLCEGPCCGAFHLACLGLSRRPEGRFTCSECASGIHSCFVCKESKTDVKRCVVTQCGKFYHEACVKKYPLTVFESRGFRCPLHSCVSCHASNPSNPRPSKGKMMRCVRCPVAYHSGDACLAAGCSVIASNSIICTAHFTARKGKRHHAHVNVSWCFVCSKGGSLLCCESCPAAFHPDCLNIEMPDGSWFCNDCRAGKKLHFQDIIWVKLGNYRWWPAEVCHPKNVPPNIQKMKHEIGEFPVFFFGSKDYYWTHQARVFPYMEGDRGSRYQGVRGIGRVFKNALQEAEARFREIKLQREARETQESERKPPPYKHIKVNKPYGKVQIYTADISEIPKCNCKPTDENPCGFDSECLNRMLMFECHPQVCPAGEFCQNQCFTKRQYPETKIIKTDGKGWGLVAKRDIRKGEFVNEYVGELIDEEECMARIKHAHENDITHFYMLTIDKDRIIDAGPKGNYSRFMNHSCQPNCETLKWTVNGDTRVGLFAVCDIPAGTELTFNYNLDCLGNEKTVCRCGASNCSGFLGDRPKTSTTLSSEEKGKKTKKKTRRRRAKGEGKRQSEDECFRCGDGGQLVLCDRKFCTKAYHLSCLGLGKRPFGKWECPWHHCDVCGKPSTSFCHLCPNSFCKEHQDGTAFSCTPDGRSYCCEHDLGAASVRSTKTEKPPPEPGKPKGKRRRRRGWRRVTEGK

[10] = biological target: T3, Zinc finger protein mex-5 (Caenorhabditis elegans, UniProt Q9XUB2); assay: MEX-5/TCR-2 RNA interaction inhibitors, dose response, biochemical, C. elegans, fluorescence polarization (AID 1960)
T3 sequence (Q9XUB2 whole entry): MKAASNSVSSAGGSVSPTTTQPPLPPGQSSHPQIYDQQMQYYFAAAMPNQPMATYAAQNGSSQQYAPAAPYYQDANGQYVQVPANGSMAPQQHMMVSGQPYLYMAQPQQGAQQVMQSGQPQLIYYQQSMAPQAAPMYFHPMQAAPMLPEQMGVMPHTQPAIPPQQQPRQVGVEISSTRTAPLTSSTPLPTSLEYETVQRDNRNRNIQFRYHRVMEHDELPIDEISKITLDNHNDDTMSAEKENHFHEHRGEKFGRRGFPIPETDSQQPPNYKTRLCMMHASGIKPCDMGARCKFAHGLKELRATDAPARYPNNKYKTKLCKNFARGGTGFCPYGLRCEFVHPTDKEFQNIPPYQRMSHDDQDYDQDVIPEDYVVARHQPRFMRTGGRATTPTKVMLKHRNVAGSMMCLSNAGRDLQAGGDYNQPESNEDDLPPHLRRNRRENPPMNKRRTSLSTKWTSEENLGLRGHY

[11] = biological target: Kallikrein-7 (Homo sapiens, UniProt P49862); assay: Fluorescence Intensity-based biochemical primary high throughput dose response assay to identify activators of kallikrein-7 (K7) zymogen.
[12] = inhibitors of Vif binding to APOBEC3G peptide, primary screen, biochemical, TR-FRET, GST-Vif 1-94, biotin-A3G peptide, dose response retest (AID 1117319); type: functional;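 also: TR-FRET signal of purified GST-Vif binding a biotinylated A3G peptide; inhibitors lower the FRET signal by blocking Vif and A3G binding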
[13] = THP-1 cell cytotoxicity, dose response, cytotoxicity control for Vif-APOBEC3G degradation inhibitor project, THP-1 cells (AID 1117359); type: functional; settings: Human immunodeficiency virus 1, THP-1
[14] = tested on: Vero; assay: Vero cell cytotoxicity, cytotoxicity control for flavivirus capping enzyme inhibitors (AID 588742); type: functional; settings: Chlorocebus sabaeus
[15] = biological target: Cytochrome P450 3A4 (Homo sapiens, UniProt P08684); settings: Potency;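 also: confirmatory qHTS run detecting inhibitors and substrates of CYP3A4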
Chain of Cytochrome P450 3A4 (P08684 whole entry): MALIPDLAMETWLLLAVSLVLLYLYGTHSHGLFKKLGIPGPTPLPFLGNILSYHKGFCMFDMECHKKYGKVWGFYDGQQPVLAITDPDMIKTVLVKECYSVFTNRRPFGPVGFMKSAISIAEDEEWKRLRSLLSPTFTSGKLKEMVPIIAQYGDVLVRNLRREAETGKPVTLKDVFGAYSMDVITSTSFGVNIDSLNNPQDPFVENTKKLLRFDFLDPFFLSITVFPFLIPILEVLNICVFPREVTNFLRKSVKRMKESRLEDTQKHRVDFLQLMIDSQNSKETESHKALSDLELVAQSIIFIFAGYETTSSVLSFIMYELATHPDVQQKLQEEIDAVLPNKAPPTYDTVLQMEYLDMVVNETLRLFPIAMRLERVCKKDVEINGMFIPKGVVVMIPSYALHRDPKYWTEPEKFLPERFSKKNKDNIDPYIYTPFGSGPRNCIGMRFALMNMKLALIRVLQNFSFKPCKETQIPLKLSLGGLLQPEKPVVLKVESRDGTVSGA

Chain of Protein-tyrosine kinase 2-beta (Q14289 whole entry): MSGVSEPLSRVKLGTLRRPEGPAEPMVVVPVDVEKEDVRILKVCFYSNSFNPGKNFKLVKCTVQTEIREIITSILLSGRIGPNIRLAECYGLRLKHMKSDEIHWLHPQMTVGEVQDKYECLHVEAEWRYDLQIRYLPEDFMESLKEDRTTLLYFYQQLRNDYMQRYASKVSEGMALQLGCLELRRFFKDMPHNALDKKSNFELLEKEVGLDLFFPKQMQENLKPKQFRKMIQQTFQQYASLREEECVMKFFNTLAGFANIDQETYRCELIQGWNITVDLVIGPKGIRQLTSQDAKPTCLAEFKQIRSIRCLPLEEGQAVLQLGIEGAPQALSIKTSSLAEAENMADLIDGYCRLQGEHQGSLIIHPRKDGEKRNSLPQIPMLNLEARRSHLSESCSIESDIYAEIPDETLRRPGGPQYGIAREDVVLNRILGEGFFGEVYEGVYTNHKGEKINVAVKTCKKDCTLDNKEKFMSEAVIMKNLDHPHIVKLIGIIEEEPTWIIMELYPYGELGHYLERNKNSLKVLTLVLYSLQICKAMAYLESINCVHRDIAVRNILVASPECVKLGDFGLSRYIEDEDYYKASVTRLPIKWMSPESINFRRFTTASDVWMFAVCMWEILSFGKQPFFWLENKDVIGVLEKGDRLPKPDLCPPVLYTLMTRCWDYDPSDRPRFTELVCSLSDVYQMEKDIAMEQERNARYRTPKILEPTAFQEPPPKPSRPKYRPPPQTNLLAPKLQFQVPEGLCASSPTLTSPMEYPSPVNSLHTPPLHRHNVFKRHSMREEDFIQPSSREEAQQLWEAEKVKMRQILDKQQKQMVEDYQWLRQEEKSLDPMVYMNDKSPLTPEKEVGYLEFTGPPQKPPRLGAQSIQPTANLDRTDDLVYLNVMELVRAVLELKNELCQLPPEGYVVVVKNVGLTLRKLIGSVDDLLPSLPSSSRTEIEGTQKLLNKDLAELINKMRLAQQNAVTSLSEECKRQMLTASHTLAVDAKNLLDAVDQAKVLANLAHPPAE
Chain of Kallikrein-7 (P49862 whole entry): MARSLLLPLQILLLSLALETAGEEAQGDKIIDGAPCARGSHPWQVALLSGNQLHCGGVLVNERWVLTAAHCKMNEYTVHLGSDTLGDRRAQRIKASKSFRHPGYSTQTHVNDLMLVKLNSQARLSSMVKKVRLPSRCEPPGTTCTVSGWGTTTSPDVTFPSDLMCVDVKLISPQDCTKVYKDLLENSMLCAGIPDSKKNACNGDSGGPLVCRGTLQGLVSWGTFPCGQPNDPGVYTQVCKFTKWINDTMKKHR

N#CCSc1nc(Nc2ccc3c(c2)OCO3)c2ccccc2n1
IC50 [1]: > 69.5 µM (not active)

CCc1cc2c(O)c(-c3ccon3)c(=N)oc2cc1OC
EC50 [2]: 31.8 µM (active)
EC50 [3]: 1.5 µM (active)
EC50 [4]: 0.591 µM (active)
EC50 [5]: 6.58 µM (active)
EC50 [6]: 7.6 µM (active)
EC50 [7]: > 12 µM (not active)

N#CC(C#N)=Cc1cccn1-c1ccc(C(=O)O)cc1
EC50 [8]: > 300 µM (not active)
AC50 [9]: > 20 µM (inactive)
EC50 [10]: 160 µM (active)

Cc1ccccc1-n1c2nc(=O)n(C)c(=O)c-2cc2ccccc21
EC50 [11]: 85.3 µM (inactive)

CCN1CCN(Cc2c(O)ccc3c2O/C(=C\c2ccc(C)cc2)C3=O)CC1
EC50 [11]: 23.9 µM (inactive)
EC50 [8]: 38.9 µM (active)
EC50 [10]: 111 µM (active)

Cc1ccc(CC(NC(=O)c2ccccc2)C(=O)NC(C)C(=O)O)cc1 (stereo not drawn)
IC50 [12]: > 100 µM (active)

CC(C)C1Oc2ccccc2C(=O)N(CC(=O)c2ccc3c(c2)OCCO3)C1=O (stereo not drawn)
EC50 [2]: < 0.1 µM (active)
EC50 [3]: 0.447 µM (active)
EC50 [4]: 0.425 µM (active)
EC50 [5]: < 0.1 µM (active)
EC50 [6]: 0.131 µM (active)
EC50 [7]: 0.33 µM (active)

O=[N+]([O-])c1ccc(CNc2ccc(F)cc2)s1
CC50 [13]: > 40 µM (active)
IC50 [12]: > 100 µM (active)

CNc1sc(C(=O)c2cccs2)c(N)c1-c1nc2ccccc2s1
CC50 [13]: 19.1 µM (active)
IC50 [12]: > 100 µM (active)
CC50 [14]: > 40 µM (active)

CCOC(=O)C1=C(c2ccccc2)OC(N)=C(C#N)C1c1cccs1 (stereo not drawn)
IC50 [1]: > 69.5 µM (not active)

C=C1C(=O)O[C@@H]2C3OC3(C)CC/C=C(\C)CC[C@@H]12 (stereo partly drawn)
AC50 [15]: 31.6 µM (inconclusive)

O=C(/C=C/c1cnc2ccccc2n1)NC12CC3CC(CC(C3)C1)C2
EC50 [2]: 0.921 µM (active)
EC50 [3]: 0.32 µM (active)
EC50 [4]: 0.62 µM (active)
EC50 [5]: < 0.1 µM (active)
EC50 [7]: 0.434 µM (active)
